In patent US20240158446A1, “CYCLIC COMPOUND HAVING SELECTIVE INHIBITORY ACTION ON KRAS OVER HRAS AND NRAS” (CHUGAI SEIYAKU KABUSHIKI KAISHA, priority 2021, published 2024):

Experiments:
[1] = tested on: human lung cancer strain NCI-H441;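 also: cell proliferation inhibition after four days measured by CellTiter-Glo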
[2] = target: GDP-bound NRAS wild-type protein (Homo sapiens, UniProt P01111); assay: Binding to NRAS by surface plasmon resonance (SPR), Single Cycle Kinetics; conditions: SPR; GDP-bound NRAS wild-type protein vs GDP-bound KRAS wild-type protein; KD ratio class
GDP-bound NRAS wild-type protein, sequence (P01111 whole entry): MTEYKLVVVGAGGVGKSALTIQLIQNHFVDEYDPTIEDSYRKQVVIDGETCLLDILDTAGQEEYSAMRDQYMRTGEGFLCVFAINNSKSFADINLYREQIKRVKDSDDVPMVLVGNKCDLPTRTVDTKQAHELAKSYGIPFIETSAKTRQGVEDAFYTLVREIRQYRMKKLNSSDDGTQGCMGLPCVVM

[3] = target: GDP-bound KRAS wild-type protein (Homo sapiens, UniProt P01116); assay: Binding to KRAS by surface plasmon resonance (SPR), Single Cycle Kinetics; conditions: SPR, Single Cycle Kinetics, 1:1 binding model; GDP-bound KRAS wild-type protein; read-out: KRAS KD
GDP-bound KRAS wild-type protein, sequence (P01116 whole entry): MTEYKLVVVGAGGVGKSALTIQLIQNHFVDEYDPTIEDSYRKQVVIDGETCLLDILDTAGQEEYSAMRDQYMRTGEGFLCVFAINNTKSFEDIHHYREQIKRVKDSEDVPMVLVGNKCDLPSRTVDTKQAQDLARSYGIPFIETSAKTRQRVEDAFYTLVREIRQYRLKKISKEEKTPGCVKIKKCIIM

[4] = target: GDP-bound HRAS wild-type protein (Homo sapiens, UniProt P01112); assay: Binding to HRAS by surface plasmon resonance (SPR), Single Cycle Kinetics; conditions: SPR; GDP-bound HRAS wild-type protein vs GDP-bound KRAS wild-type protein; KD ratio class
GDP-bound HRAS wild-type protein, sequence (P01112 whole entry): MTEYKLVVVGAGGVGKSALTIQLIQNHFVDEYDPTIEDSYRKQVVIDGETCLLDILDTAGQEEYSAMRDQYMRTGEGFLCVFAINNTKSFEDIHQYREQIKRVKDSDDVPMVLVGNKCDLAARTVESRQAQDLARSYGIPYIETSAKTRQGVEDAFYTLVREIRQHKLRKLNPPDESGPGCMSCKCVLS

Compound | IC50 [1] | NRAS/KRAS (ratio of KD value for NRAS to KD value for KRAS) [2] | Kd [3] | HRAS/KRAS (ratio of KD value for HRAS to KD value for KRAS) [4]
CCO[C@@H]1C[C@H]2C(=O)NC3(CCC3)C(=O)N(C)[C@@H](C3CCCC3)C(=O)N(C)[C@H](C(=O)N3CCOCC3)CC(=O)N(C)[C@@H](CC(C)C)C(=O)N[C@@H]([C@@H](C)CC)C(=O)N3CC[C@H]3C(=O)N(C)[C@H]3C[C@@H](C)[C@@H](C)CN(C3=O)[C@@H](Cc3ccc(C(F)(F)F)cc3)C(=O)N(C)CC(=O)N[C@@H](CCc3ccc(C(F)(F)F)c(Cl)c3)C(=O)N2C1 [PP1361] | 6.2 nM | A (a compound having 10 or more and less than 20 is denoted as A) | 0.15 nM | B (a compound having 3 or more and less than 10 is denoted as B)
CCO[C@@H]1C[C@H]2C(=O)NC3(CCCC3)C(=O)N(C)[C@@H](C3CCCC3)C(=O)N(C)[C@H](C(=O)N(C)C)CC(=O)N(C)[C@@H](CC3CC3)C(=O)N[C@@H]([C@@H](C)CC)C(=O)N(C)CC(=O)N(C)[C@H]3C[C@@H](C)[C@@H](C)CN(C3=O)[C@@H](Cc3ccc(C(F)(F)F)cc3)C(=O)N(C)CC(=O)N[C@@H](CCc3ccc(C(F)(F)F)c(Cl)c3)C(=O)N2C1 [PP1362] | 3.7 nM | A (a compound having 10 or more and less than 20 is denoted as A) | 0.037 nM | B (a compound having 3 or more and less than 10 is denoted as B)
CC[C@H](C)[C@@H]1NC(=O)[C@H](CC)N(C)C(=O)C[C@@H](C(=O)N2CCOCC2)N(C)C(=O)[C@H](C2CCCC2)N(C)C(=O)C2(CCC2)NC(=O)[C@@H]2CCCN2C(=O)[C@H](CCc2cc(F)c(C(F)(F)F)c(F)c2)NC(=O)CN(C)C(=O)[C@H](Cc2ccc(C(F)(F)F)cc2)N2C[C@H](C)[C@H](C)C[C@@H](C2=O)N(C)C(=O)[C@@H]2CCN2C1=O [PP1363] | 34.7 nM | A (a compound having 10 or more and less than 20 is denoted as A) | 0.32 nM | B (a compound having 3 or more and less than 10 is denoted as B)
CC[C@H](C)[C@@H]1NC(=O)[C@H](CC)N(C)C(=O)C[C@@H](C(=O)N(C)C)N(C)C(=O)[C@H](C2CCCC2)N(C)C(=O)C2(CCCC2)NC(=O)[C@@H]2CCCN2C(=O)[C@H](CCc2cc(F)c(C(F)(F)F)c(F)c2)NC(=O)CN(C)C(=O)[C@H](Cc2ccc(C(F)(F)F)cc2)N2C[C@H](C)[C@H](C)C[C@@H](C2=O)N(C)C(=O)CN(C)C1=O [PP1364] | 7.1 nM | A (a compound having 10 or more and less than 20 is denoted as A) | 0.05 nM | B (a compound having 3 or more and less than 10 is denoted as B)
CC[C@H](C)[C@@H]1NC(=O)[C@H](CC)N(C)C(=O)C[C@@H](C(=O)N2CCOCC2)N(C)C(=O)[C@H](C2CCCC2)N(C)C(=O)C2(CCCC2)NC(=O)[C@@H]2CCCN2C(=O)[C@H](CCc2cc(F)c(C(F)(F)F)c(F)c2)NC(=O)CN(C)C(=O)[C@H](Cc2ccc(C(F)(F)F)cc2)N2C[C@H](C)[C@H](C)C[C@@H](C2=O)N(C)C(=O)CN(C)C1=O [PP1365] | 4.2 nM | A (a compound having 10 or more and less than 20 is denoted as A) | 0.13 nM | B (a compound having 3 or more and less than 10 is denoted as B)
CC[C@H](C)[C@@H]1NC(=O)[C@H](CC)N(C)C(=O)C[C@@H](C(=O)N2CCOCC2)N(C)C(=O)[C@H](C2CCCC2)N(C)C(=O)C2(CCC2)NC(=O)[C@@H]2CCCN2C(=O)[C@H](CCc2cc(F)c(C(F)(F)F)c(F)c2)NC(=O)CN(C)C(=O)[C@H](Cc2ccc(C(F)(F)F)cc2)N2C[C@H](C)[C@H](C)C[C@@H](C2=O)N(C)C(=O)CN(C)C1=O [PP1366] | 14 nM | A (a compound having 10 or more and less than 20 is denoted as A) | 0.11 nM | B (a compound having 3 or more and less than 10 is denoted as B)
CC[C@H](C)[C@@H]1NC(=O)[C@H](CC(C)C)N(C)C(=O)C[C@@H](C(=O)N2CCOCC2)N(C)C(=O)[C@H](C2CCCC2)N(C)C(=O)C2(CCC2)NC(=O)[C@@H]2CCCN2C(=O)[C@H](CCc2cc(F)c(C(F)(F)F)c(F)c2)NC(=O)CN(C)C(=O)[C@H](Cc2ccc(C(F)(F)F)cc2)N2C[C@H](C)[C@H](C)C[C@@H](C2=O)N(C)C(=O)[C@@H]2CCN2C1=O [PP1367] | 29.3 nM | A (a compound having 10 or more and less than 20 is denoted as A) | 0.34 nM | B (a compound having 3 or more and less than 10 is denoted as B)
CC[C@H](C)[C@@H]1NC(=O)[C@H](CC2CC2)N(C)C(=O)C[C@@H](C(=O)N(C)C)N(C)C(=O)[C@H](C2CCCC2)N(C)C(=O)C2(CCCC2)NC(=O)[C@@H]2CCCN2C(=O)[C@H](CCc2cc(F)c(C(F)(F)F)c(F)c2)NC(=O)CN(C)C(=O)[C@H](Cc2ccc(C(F)(F)F)cc2)N2C[C@H](C)[C@H](C)C[C@@H](C2=O)N(C)C(=O)CN(C)C1=O [PP1368] | 2.9 nM | A (a compound having 10 or more and less than 20 is denoted as A) | 0.061 nM | B (a compound having 3 or more and less than 10 is denoted as B)
CCO[C@@H]1C[C@H]2C(=O)NC3(CCC3)C(=O)N(C)[C@@H](C3CCCC3)C(=O)N(C)[C@H](C(=O)N3CCOCC3)CC(=O)N(C)[C@@H](CC)C(=O)N[C@@H]([C@@H](C)CC)C(=O)N3CC[C@H]3C(=O)N(C)[C@H]3CC[C@@H](C)CN(C3=O)[C@@H](Cc3ccc(C(F)(F)F)cc3)C(=O)N(C)CC(=O)N[C@@H](CCc3cc(F)c(C(F)(F)F)c(F)c3)C(=O)N2C1 [PP1369] | 13.4 nM | B (a compound having 3 or more and less than 10 is denoted as B) | 0.26 nM | B (a compound having 3 or more and less than 10 is denoted as B)
CCO[C@@H]1C[C@H]2C(=O)NC3(CCCC3)C(=O)N(C)[C@@H](C3CCCC3)C(=O)N(C)[C@H](C(=O)N(C)C)CC(=O)N(C)[C@@H](CC)C(=O)N[C@@H]([C@@H](C)CC)C(=O)N(C)CC(=O)N(C)[C@H]3CC[C@@H](C)CN(C3=O)[C@@H](Cc3ccc(C(F)(F)F)cc3)C(=O)N(C)CC(=O)N[C@@H](CCc3cc(F)c(C(F)(F)F)c(F)c3)C(=O)N2C1 [PP1370] | 2.3 nM | C (A compound having a KD ratio of 0.1 or more and less than 3 is denoted as C) | 0.057 nM | C (A compound having a KD ratio of 0.1 or more and less than 3 is denoted as C)
CCO[C@@H]1C[C@H]2C(=O)NC3(CCCC3)C(=O)N(C)[C@@H](C3CCCC3)C(=O)N(C)[C@H](C(=O)N3CCOCC3)CC(=O)N(C)[C@@H](CC)C(=O)N[C@@H]([C@@H](C)CC)C(=O)N(C)CC(=O)N(C)[C@H]3CC[C@@H](C)CN(C3=O)[C@@H](Cc3ccc(C(F)(F)F)cc3)C(=O)N(C)CC(=O)N[C@@H](CCc3cc(F)c(C(F)(F)F)c(F)c3)C(=O)N2C1 [PP1371] | 5.1 nM | A (a compound having 10 or more and less than 20 is denoted as A) | 0.077 nM | B (a compound having 3 or more and less than 10 is denoted as B)
CCO[C@@H]1C[C@H]2C(=O)NC3(CCC3)C(=O)N(C)[C@@H](C3CCCC3)C(=O)N(C)[C@H](C(=O)N3CCOCC3)CC(=O)N(C)[C@@H](CC)C(=O)N[C@@H]([C@@H](C)CC)C(=O)N(C)CC(=O)N(C)[C@H]3CC[C@@H](C)CN(C3=O)[C@@H](Cc3ccc(C(F)(F)F)cc3)C(=O)N(C)CC(=O)N[C@@H](CCc3cc(F)c(C(F)(F)F)c(F)c3)C(=O)N2C1 [PP1372] | 5 nM | B (a compound having 3 or more and less than 10 is denoted as B) | 0.078 nM | B (a compound having 3 or more and less than 10 is denoted as B)
CCO[C@@H]1C[C@H]2C(=O)NC3(CCC3)C(=O)N(C)[C@@H](C3CCCC3)C(=O)N(C)[C@H](C(=O)N3CCOCC3)CC(=O)N(C)[C@@H](CC(C)C)C(=O)N[C@@H]([C@@H](C)CC)C(=O)N3CC[C@H]3C(=O)N(C)[C@H]3CC[C@@H](C)CN(C3=O)[C@@H](Cc3ccc(C(F)(F)F)cc3)C(=O)N(C)CC(=O)N[C@@H](CCc3cc(F)c(C(F)(F)F)c(F)c3)C(=O)N2C1 [PP1373] | 12.2 nM | B (a compound having 3 or more and less than 10 is denoted as B) | 0.35 nM | B (a compound having 3 or more and less than 10 is denoted as B)
CCO[C@@H]1C[C@H]2C(=O)NC3(CCC3)C(=O)N(C)[C@@H](C3CCCC3)C(=O)N(C)[C@H](C(=O)N3CCOCC3)CC(=O)N(C)[C@@H](CC)C(=O)N[C@@H]([C@@H](C)CC)C(=O)N3CC[C@H]3C(=O)N(C)[C@H]3CC[C@@H](C)CN(C3=O)[C@@H](Cc3ccc(C(F)(F)F)cc3)C(=O)N(C)CC(=O)N[C@@H](CCc3ccc(C(F)(F)F)c(Cl)c3)C(=O)N2C1 [PP1375] | 11.5 nM | B (a compound having 3 or more and less than 10 is denoted as B) | 0.23 nM | B (a compound having 3 or more and less than 10 is denoted as B)
